Values after ≈ are worked out from the molar mass of the structure shown. Like-named read-outs stand apart in the source and are kept apart here. No end group written: not given here.
Columns and labels:
MDRE (328-84) = type: cell-based, Enterobacter cloacae
Method: (§1) The MICs of the peptides were measured by the Clinical and Laboratory Standards Institute (CLSI) broth microdilution method, as outlined in a previous study.^[ [26], [27] ^]
(§2) Microbial Strains and Cell Lines: Multiple bacterial strains were used in this study. Standard stains included Escherichia coli (KCTC 1682), Pseudomonas aeruginosa (KCTC 1637), Staphylococcus aureus (KCTC1621) and Staphylococcus epidermidis (KCTC 1917) supplied from the Korean Collection for Type Cultures (KCTC) of the Korea Research Institute of Bioscience and Biotechnology (KRIBB). Clinically isolated multidrug-resistant bacteria included multidrug-resistant Klebsiella pneumonia (MDRKP 328-83), multidrug-resistant Acinetobacter baumannii (MDRAB 329-53), multidrug-resistant Pseudomonas aeruginosa (MDRPA 314-69), multidrug-resistant Enterobacter cloacae (MDRE 328-84) and multidrug-resistant Escherichia coli (MDREC 329-66) provided from Hospital of Chosun University, Korea. All bacterial strains were stored in 20% glycerol at −80 °C. For the subsequent experiments, the bacteria were recovered and cultured in the corresponding enrichment broth at 37 °C. The mouse macrophage RAW264.7, mouse fibroblast NIH-3T3 and human keratinocyte HaCat cells were cultured in Dulbecco’s modified Eagle’s medium (DMEM), supplemented with 10% (v/v) of fetal bovine serum (Sigma-Aldrich), 100 U/mL of penicillin and 0.1 mg/mL of streptomycin, at 37 °C in the presence of 5% CO2
(§3) Minimal Inhibitory Concentrations (MICs): Bacteria were grown to mid-logarithmic phase and diluted in Mueller-Hinton broth (MHB) (Difco). The bacterial suspension (1×10^6 CFU/well) was added to a 96-well microtiter plate along with a two-fold serial dilution of samples. The plate was incubated at 37 °C for 24 hours and the bacterial growth inhibition was assessed by measuring the optical density using an ELISA plate reader. The minimum inhibitory concentration (MIC) was defined as the lowest concentration of samples that prevented visible bacterial growth.

S. aureus (KCTC 1621) [1] = test: PI influx assay by flow cytometry; type: cell-based, Staphylococcus aureus; settings: 16 µg mL^−1, 60 min, 37 °C, PI 10 µg/mL, untreated 9.5%
Method: (§4) Damage to membrane integrity induced by the peptides was evaluated by flow cytometry of E. coli (KCTC 1682) and S. aureus (KCTC 1621) cells stained with the membrane‐impermeable dye PI, as previously described.^[ [26], [27] ^]
(§5) Flow Cytometry Analysis: E. coli (KCTC 1682) and S. aureus (KCTC 1621) were cultured in LB broth until they reached mid-log-phase, then washed and resuspended in PBS to a density of 2 × 10^5 CFU/mL. The bacterial suspension was incubated with the samples and 10 µg/mL of propidium iodide (PI), a fluorescent dye, at 37 °C for 1 hour in the dark. The samples were then centrifuged and washed twice in PBS to remove any excess dye. The fluorescence of PI, which indicates membrane damage, was measured by FACS flow cytometer (Agilent, ACEA Bioscience Inc.) using a laser excitation wavelength of 488 nm.

E. coli (KCTC 1682) [2] = test: PI influx assay by flow cytometry; type: cell-based, Escherichia coli; settings: 16 µg mL^−1, 60 min, 37 °C, PI 10 µg/mL, untreated 6.9%
Method: as §4, §5

[3] = system: Escherichia coli [KCTC 1682]; type: cell-based
Method: as §1, §3

[4] = system: Staphylococcus epidermidis [KCTC 1917]; type: cell-based
Method: as §1, §3

[5] = system: Pseudomonas aeruginosa [KCTC 1637]; type: cell-based
Method: as §1, §3

[6] = system: Staphylococcus aureus [KCTC1621]; type: cell-based
Method: as §1, §3

E. coli (KCTC 1682) [7] = test: Multipassage drug resistance study; type: cell-based, Escherichia coli; settings: continuous exposure at sub-MIC (0.5×MIC)
Method: The MICs of hirunipin 2 and antibiotics were determined, and the concentration of each sub‐MIC (0.5×MIC) of E. coli (KCTC 1682) was diluted to 1 × 10^6 CFU mL^−1 with MHB for the next passaged MIC determination. This procedure was repeated fifteen times. Ciprofloxacin and tetracycline were used as the controls.

MDRAB (329-53) [8] = system: MDRAB (329-53)
Method: Synergy testing by checkerboard assay: Briefly, each 96-well microtiter plate was inoculated with two-fold serial dilutions of two antibiotics, ranging from 1/8 MIC to 2 MIC, such that one antibiotic was inoculated in the columns and the other in the rows. Then, MDRAB (329-53) cells were inoculated at a concentration of 1× 10^6 CFU/mL. The plates were incubated overnight under static conditions and observed visually.

S. aureus (KCTC 1621) [9] = test: Membrane depolarization assay (diSC3-5); type: cell-based, Staphylococcus aureus; settings: diSC3-5 fluorescence, monitored 500 s
Method: The FL dye diSC3‐5 (3,3′‐dipropylthiadicarbocyanine iodide) was utilized to assess the depolarizing impact of peptides on the cytoplasmic membrane of S. aureus (KCTC 1621), following a previously established method.^[ [26], [27] ^]
Membrane Depolarization Assay: Briefly, mid-log phase S. aureus (KCTC 1621) was harvested and washed three times with 5 mM HEPES buffer (pH 7.4, containing 20 mM glucose), and resuspended to an OD600 of 0.05 in the same buffer. The cell suspension was incubated with 0.4 μM diSC3-5 for 90 min such that most of the dye molecules gathered at the cytoplasmic membrane. To equilibrate the cytoplasmic and external K^+ concentrations, KCl was added to the cell suspension containing diSC3-5 to obtain a final concentration of 100 mM, followed by incubating the cells at room temperature for 15−30 min, with peptide aliquots added to 2 mL of suspension. The fluorescence was recorded using a model RF-5301 PC fluorescence spectrophotometer (Shimadzu) at an excitation wavelength of 622 nm and an emission wavelength of 670 nm.

S. aureus (KCTC1621) = type: cell-based, Staphylococcus aureus; settings: KCTC1621, 24 h
Method: as §3, with “The salt sensitivity of the peptides was also analyzed. […] The MIC values in the physiological environment were determined as described above, and data were acquired from three independent assays performed in triplicate. Minimal” for “Minimal”

MDRAB (329-53) [10] = type: cell-based, Acinetobacter baumannii; settings: 24 h
Method: as §1, §2, §3

MDRKP (328-83) = type: cell-based, Klebsiella pneumonia; settings: 24 h
Method: as §1, §2, §3

MDREC (329-66) = type: cell-based, Escherichia coli; settings: 24 h
Method: as §1, §2, §3

MDRPA (314-69) = type: cell-based, Pseudomonas aeruginosa; settings: 24 h
Method: as §1, §2, §3

E. coli (KCTC 1682) [11] = type: cell-based, Escherichia coli; settings: KCTC 1682, 24 h
Method: as §3, with “The salt sensitivity of the peptides was also analyzed. […] The MIC values in the physiological environment were determined as described above, and data were acquired from three independent assays performed in triplicate. Minimal” for “Minimal”

[12] = CLSI broth microdilution in MHB, 1×10^6 CFU/well, 37 °C, 24 h, optical density
[13] = antibiotic in combination with hirunipin 2
[14] = in combination with hirunipin 2

Compound: CC[C@H](C)[C@H](NC(=O)CN)C(=O)NCC(=O)N[C@@H](C)C(=O)N[C@H](C(=O)N[C@@H](CC(C)C)C(=O)N[C@@H](CCCCN)C(=O)N[C@H](C(=O)N[C@@H](CC(C)C)C(=O)N[C@H](C(=O)N[C@H](C(=O)NCC(=O)N[C@@H](CC(C)C)C(=O)N1CCC[C@H]1C(=O)N[C@@H](C)C(=O)N[C@@H](CC(C)C)C(=O)N[C@H](C(=O)N[C@@H](CO)C(=O)N[C@@H](Cc1c[nH]c2ccccc12)C(=O)N[C@H](C(=O)N[C@@H](CCCCN)C(=O)N[C@@H](CCCNC(=N)N)C(=O)N[C@@H](CCCCN)C(=O)N[C@@H](CCCNC(=N)N)C(=O)N[C@@H](CCC(N)=O)C(=O)N[C@@H](CCC(N)=O)C(N)=O)[C@@H](C)CC)[C@@H](C)CC)[C@@H](C)O)[C@@H](C)O)C(C)C)C(C)C [Melittin, reference compound]
- Minimum inhibitory concentrations, MDRE (328-84) (MDRE (328-84); clinically isolated multidrug-resistant Enterobacter cloacae, broth microdilution): 64 µg/mL (≈ 22.5 µM)
- percentage of PI-positive cells, S. aureus (KCTC 1621) (S. aureus (KCTC 1621) [1]): 99.5%
- percentage of PI-positive cells, E. coli (KCTC 1682) (E. coli (KCTC 1682) [2]): 91.6%
- Minimum inhibitory concentration (MIC), Escherichia coli [KCTC 1682] [3, 12]: 32 µg/mL (≈ 11.2 µM)
- Minimum inhibitory concentration (MIC), Staphylococcus epidermidis [KCTC 1917] [4, 12]: 32 µg/mL (≈ 11.2 µM)
- Minimum inhibitory concentration (MIC), Pseudomonas aeruginosa [KCTC 1637] [5, 12]: 32 µg/mL (≈ 11.2 µM)
- Minimum inhibitory concentration (MIC), Staphylococcus aureus [KCTC1621] [6, 12]: 16 µg/mL (≈ 5.62 µM)

Compound: CN(C)[C@@H]1C(O)=C(C(N)=O)C(=O)[C@@]2(O)C(O)=C3C(=O)c4c(O)cccc4[C@@](C)(O)[C@H]3C[C@@H]12 [TET, Tetracycline]
- fold-change in the MICs after 15 passages (E. coli (KCTC 1682) [7]): 32 fold
- FICI: fractional inhibitory concentration index, FICA + FICB (MDRAB (329-53) [8]; [13]): 0.25
- Interpretation of FICI (MDRAB (329-53) [8]; [13]): synergy (FICI ≤ 0.5 was interpreted as synergy)
- MICA: MIC of antibiotic alone (MDRAB (329-53) [8]; checkerboard, MDRAB, 1×10^6 CFU/mL): 16 µg/mL
- FICA: fractional inhibitory concentration of antibiotic ([A] / MICA) (MDRAB (329-53) [8]; [14]): 0.125
- [A]: MIC of antibiotic in combination (MDRAB (329-53) [8]; [14]): 2 µg/mL

Compound: Buforin‐2 [Buforin-2]
- percentage of PI-positive cells, S. aureus (KCTC 1621) (S. aureus (KCTC 1621) [1]): 9.6%
- percentage of PI-positive cells, E. coli (KCTC 1682) (E. coli (KCTC 1682) [2]): 7.6%
- effect on membrane potential (in words) (S. aureus (KCTC 1621) [9]): did not affect membrane potential

Compound: MKSINLKKVVKSIIKKILNSSF-NH2 [Hirunipin 2]
- Minimum inhibitory concentrations, MDRE (328-84) (MDRE (328-84); 24 h): 32 µg/mL
- MIC against S. aureus (KCTC1621), 4 µM FeCl3 (S. aureus (KCTC1621)): 32 µg/mL
- MIC against S. aureus (KCTC1621), 6 µM NH4Cl (S. aureus (KCTC1621)): 16 µg/mL
- MIC against S. aureus (KCTC1621), 1 mM MgCl2 (S. aureus (KCTC1621)): 32 µg/mL
- MIC against S. aureus (KCTC1621), 2.5 mM CaCl2 (S. aureus (KCTC1621)): 32 µg/mL
- MIC against S. aureus (KCTC1621), 4.5 mM KCl (S. aureus (KCTC1621)): 32 µg/mL
- MIC against S. aureus (KCTC1621), 150 mM NaCl (S. aureus (KCTC1621)): 32 µg/mL
- MIC against S. aureus (KCTC1621), 25% Human serum (S. aureus (KCTC1621)): 64 µg/mL
- MIC against S. aureus (KCTC1621), Control (S. aureus (KCTC1621)): 32 µg/mL
- Minimum inhibitory concentrations, MDRAB (329-53) (MDRAB (329-53) [10]): 64 µg/mL
- MICB: MIC of hirunipin 2 alone (MDRAB (329-53) [8]): 64 µg/mL
- Minimum inhibitory concentration (MIC), Escherichia coli [KCTC 1682] ([3]; KCTC 1682, 24 h): 32 µg/mL
- Minimum inhibitory concentration (MIC), Staphylococcus epidermidis [KCTC 1917] ([4]; KCTC 1917, 24 h): 32 µg/mL
- Minimum inhibitory concentration (MIC), Pseudomonas aeruginosa [KCTC 1637] ([5]; KCTC 1637, 24 h): 32 µg/mL
- Minimum inhibitory concentration (MIC), Staphylococcus aureus [KCTC1621] ([6]; KCTC1621, 24 h): 32 µg/mL
- Minimum inhibitory concentrations, MDRKP (328-83) (MDRKP (328-83)): 128 µg/mL
- Minimum inhibitory concentrations, MDREC (329-66) (MDREC (329-66)): 16 µg/mL
- Minimum inhibitory concentrations, MDRPA (314-69) (MDRPA (314-69)): 16 µg/mL
- MIC against E. coli (KCTC 1682), 4 µM FeCl3 (E. coli (KCTC 1682) [11]): 8 µg/mL
- MIC against E. coli (KCTC 1682), 6 µM NH4Cl (E. coli (KCTC 1682) [11]): 8 µg/mL
- MIC against E. coli (KCTC 1682), 1 mM MgCl2 (E. coli (KCTC 1682) [11]): 32 µg/mL
- MIC against E. coli (KCTC 1682), 2.5 mM CaCl2 (E. coli (KCTC 1682) [11]): 8 µg/mL
- MIC against E. coli (KCTC 1682), 4.5 mM KCl (E. coli (KCTC 1682) [11]): 8 µg/mL
- MIC against E. coli (KCTC 1682), 150 mM NaCl (E. coli (KCTC 1682) [11]): 16 µg/mL
- MIC against E. coli (KCTC 1682), 25% Human serum (E. coli (KCTC 1682) [11]): 64 µg/mL
- MIC against E. coli (KCTC 1682), Control (E. coli (KCTC 1682) [11]): 32 µg/mL
